# Experimental data from patent US5985589A, “Lipid kinase” (ICOS Corporation, priority 1999, dated 1999).
# Test system: p110δ
# Experiment: PI 3-kinase activity of immunoprecipitated FLAG-tagged p110δ (lipid kinase assay, TLC/autoradiography)
# Assay type: biochemical, human
# Settings: at 100 nM wortmannin; p110δ immunoprecipitated from transfected COS cells
# Method: The FLAG-tagged p110δ was expressed by transfecting pCDNA3:p110δFLAG into COS cells using DEAE dextran. Three days after transfection, expression of p110δ was determined by immunoprecipitations and western blotting using the M2 monoclonal antibody (Kodak Scientific Imaging Systems) according to the manufacturer's instructions. PI 3-kinase activity was determined as described [Hu et al., Mol. Cell. Biol., 13:7677-7688 (1993)].
# To determine the PI 3-kinase activity of p110δ, 5μl of immunoprecipitated p110δ was mixed with 1 μl of PI/EGTA and incubated at room temperature for 10 minutes [PI/EGTA is 10 mg/ml PI(Sigma) in CHCl3, which has been dried under a vacuum, resuspended in 20 mg/ml DMSO in the presence or absence of various concentrations of the PI3 kinase inhibitor wortmannin and diluted 1:10 in 5 mM EGTA] and added to 1 μl 10× HM buffer (200 mM HEPES pH7.2, 50 mM MnCl2), 0.5 μl γ^32 PATP (10 mCi/ml-300 Ci/mmol), 1 μl 100 μM ATP, and 1.5 μl H2 O and incubated at 30° C. for 15 minutes. The reactions were terminated by addition of 100μl 1M HCl. Lipids were extracted with 200 μl CHCl3 /MeOH (1:1) by vortexing for 1 minute followed by centrifugation at 16,000×g for 2 minutes at room temperature. The lipids were further extracted with 80 μl 1M HCl/MeOH (1:1) by vortexing for 1 minutes, followed by centrifugation at 16,000×g for 2 minutes at room temperature. […]
compound,measurement,value
COC[C@H]1OC(=O)c2coc3c2[C@@]1(C)C1=C(C3=O)[C@@H]2CCC(=O)[C@@]2(C)C[C@H]1OC(C)=O [wortmannin],inhibition of PI 3-kinase activity (generation of phosphorylated lipids),approximately 50%
